Results: US20050176812A1, “Method of treating cancer” (priority 2003, published 2005)

Assays:
[1] = stability of discodermolide infusion solution; type: physicochemical; conditions: infusion concentrate mixed with diluent; infusion solution 0.1-2.0 mg/mL, 0.1-1.5 mg/mL, 0.5-8.0 mg/mL or 0.77 mg/mL
Protocol: The amount of diluent used in admixture with the infusion concentrate to form an infusion solution may be chosen so as to obtain a desired concentration of discodermolide in the infusion solution. The amount of diluent used is also chosen so that the solution is stable long enough to be administered. Concentration of infusion solutions are 0.1-2.0 mg/mL, or 0.1-1.5 mg/mL or preferably 0.5-8.0 mg/mL or 0.77 mg/mL. Such solutions are found to be stable for up to 8 hours.

[2] = precipitation on direct i.v. infusion followed by normal saline flush; type: physicochemical; conditions: 0.77 mg/mL in 40% propylene glycol, 10% ethanol, 50% normal saline; direct i.v. infusion into the vein followed by normal saline flush
Protocol: Preferably the infusion solution of the present invention is prepared by mixing the infusion concentrate with a diluent, such as 16.3% W/v ethanol in saline in a suitable container. A preferred formulation comprises 1 mL of 2 mg/mL infusion concentrate diluted with 1.6 mL of 16.3% w/v ethanol in saline to yield an infusion solution containing 0.77 mg/mL discodermolide in 40% propylene glycol, 10% ethanol and 50% normal saline. This solution is administered via iv infusion, or push into Y tubing containing a 0.9% normal saline drip, directly into the vein and the drug solution residue in the tubing will be flushed with normal saline. The volume of discodermolide solution given via i.v. push will vary from 0.3 mL (at the starting does of 0.2 mg or 0.13 mg/m^2) to 26 mL (for a dose of 20 mg or 11.43 mg/m^2) or 43 mL (for a dose of 33 mg or 19.2 mg/m^2).

SMILES: C=C/C=C\[C@H](C)[C@H](OC(N)=O)[C@@H](C)[C@H](O)[C@@H](C)C/C(C)=C\[C@H](C)[C@@H](O)[C@@H](C)/C=C\[C@@H](O)C[C@@H]1OC(=O)[C@H](C)[C@@H](O)[C@H]1C [discodermolide]
- stability of infusion solution (time stable) [1]: up to 8 hours
- precipitation of discodermolide [2]: will not cause any precipitation
